Reference: patent US20240285625A1, “ERK1/2 AND KRAS G12C INHIBITORS COMBINATION THERAPY” (Erasca, Inc., priority 2021, published 2024)

Assay: Body weight loss in the CO-04-0310 PDX study
Assay type: in vivo, Balb/c nude mice
Conditions: CO-04-0310 study; Compound 1 30 mg/kg/dose BID monotherapy; DietGel starting on treatment day 14
Method: Treatment started on the day after randomization. The treatment start day was denoted as treatment day 1. Mice were dosed by oral administration of vehicle control solution or monotherapy treatments of Compound 1 at 30 mg/kg/dose BID or sotorasib at 100 mg/kg QD. An additional group received combination treatment of Compound 1 at 30 mg/kg/dose BID or sotorasib at 100 mg/kg QD. BID was dosed at an 8-hour interval. In the combination group, sotorasib was dosed first and Compound 1 was dosed one hour later. In addition to regular food and water supply. DietGel (Ready Jelly R. 76A. Ready Biotechnology (ShenZhen) Co., Ltd.) was added in cages where at least two mice in a treatment group started showing >10% BWL at any measurement day. DietGel was supplied through the remaining study period after the addition of DietGel. Per this practice, mice in the Compound 1 at 30 mg/kg/dose BID monotherapy treatment group were supplied with DictGel food starting on treatment day 14. The study was terminated on treatment day 28 as defined in the study protocol.

Cc1cnc(NC2CCOCC2)nc1-n1cnc(C(=O)N[C@H](CN)c2cc(F)cc(Cl)c2)c1 [Compound 1, (S)—N-(2-amino-1-(3-chloro-5-fluorophenyl)ethyl)-1-(5-methyl-2-((tetrahydro-2H-pyran-4-yl)amino)pyrimidin-4-yl)-1H-imidazole-4-carboxamide]
BWL (at least two mice in treatment group; DietGel supplied): > 10%
